From BindingDB's records for doi:10.1074/jbc.M114.559062 (Case Western Reserve University School of Medicine, 2014) come the findings set out here.

Assay [1] has as its target T1, Fatty acid-binding protein 5-ANS (Mus musculus, UniProt Q05816).
T1 sequence (Q05816 whole entry): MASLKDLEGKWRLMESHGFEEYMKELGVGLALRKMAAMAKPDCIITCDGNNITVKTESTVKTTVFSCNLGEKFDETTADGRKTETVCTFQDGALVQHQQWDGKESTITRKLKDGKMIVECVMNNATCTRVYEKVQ
Description: Fluorescence Competition Assay. The method, then: (§1) The method entails two steps [Lin et al., Biochemistry, 38:185-190]. In the first step, the Kd for association of FABP5 with the fluorescent lipid probe anilinonaphtalene-8-sulfonic acid (ANS) was measured by fluorescence titrations. Kd values for nonfluorescent ligands were then measured by monitoring their ability to compete with the probe for binding. FABP5 was precomplexed with ANS and titrated with ligands. Ligand binding was followed by monitoring the decrease in fluorescence upon displacement of the probe from the protein.

The target of assay [2] is T2, Fatty acid-binding protein 5 (Mus musculus, UniProt Q05816).
T2 sequence (Q05816 whole entry): T1 sequence (Q05816 whole entry)
Description: Fluorescence Competition Assay. The method, then:
as §1

Turning to `CCCCC/C=C\C/C=C\C/C=C\C/C=C\CCCC(=O)NCCO` [Arachidonoyl ethanolamide], binding in assay [1] was put at a Kd of 0.1 µM.

With `O=S(=O)(O)c1cccc2cccc(Nc3ccccc3)c12` [ANS], the Kd in assay [2] is 0.07 µM.

The compound `CCCCC/C=C\C/C=C\C/C=C\C/C=C\CCCC(=O)O` [[1-14C]Arachidonic acid] gave an equilibrium dissociation constant (Kd) in assay [1] of 0.0421 µM.

For orientation: Kd means the free concentration of one partner at which half of the binding sites on the other are occupied at equilibrium, for simple one-to-one binding. A low value points to higher affinity.
